Reference: patent US20040138272A1, “1,4-Substituted cyclohexane derivatives” (priority 2002, published 2004)
“Also recorded” adds a separate entry of the source.

Columns and labels:
[1] = tested on: SK-MEL-1 human malignant melanoma; test: Thymidine uptake anti-proliferation assay, SK-MEL-1; format: cell-based
Protocol: (§1) The antiproliferative effects of BA-1037 were tested by a thymidine uptake assay with several different human cancer cell lines grown in culture. The cell lines tested were HEC-1B human adnocarcinoma, SK-MEL-1 human malignant melanoma, and Caco-2 human colorectal adenocarcinoma. The cells were seeded in a 96 well plate and after 2 hours the cells were treated with test BA-1037 compound or with control solutions. The control solutions were PBS as a negative control, and with complete medium plus the DMSO vehicle (at 0.1% or 1%). BA-1037 was added at three different concentrations: 1 uM, 10, uM or 100 uM. Each control solution and test solution was plated in triplicate for each cell line. The plate was incubated at 37 C. with 5% CO2 in a humidified atmosphere for approximately 54 hours. A volume of 0.02 ml of 3H-methy thymidine which contained 1.0 uCi was added to each well. The culture was incubated a further 18 hours. Using an automated cell harvestor the cells from each well were aspirated onto a glass microfiber filter. The cells were broken with distilled water to leave mainly the DNA on the filter. Each filter was placed in a scintillation counter (TopCount NXT). At appropriate settings for the 3H, each filter was counted for one minute. The results are expressed as CPM (counts per minute).

[2] = target: T1, human Rho kinase II (ROCK-II (h)) (Homo sapiens, UniProt O75116); test: Commercial inhibition assay with recombinant human ROCKII, IC50 curves (FIGS. 8, 9); format: biochemical
T1 construct: purchased
Description: Referring to FIGS. 8 and 9 inhibiton of ROCKII activity and determination of IC50 may also be done throught the use of known (i.e. commercial) inhibition assays that use recombinant human ROCKII.

[3] = tested on: HEC-1B human adnocarcinoma; test: Thymidine uptake anti-proliferation assay, HEC-1B; format: cell-based; settings: 100 uM, versus DMSO and PBS controls; Dihydrochloride
Protocol: as §1

[4] = target: glycogen synthatase kinase 3 beta (GSKB) (Homo sapiens, UniProt P49841); test: GSK B kinase activity of compounds (FIG. 10); format: biochemical; settings: 10 uM
[5] = tested on: NG108-15 neuronal cell line; test: Rapid bioassay of neurite growth in NG108-15 cells; format: cell-based; settings: 35 uM
Protocol: When neurons are placed on inhibitory substrates in tissue culture, the neurons remain rounded. When an effective Rho kinase inhibitor is added to the neurons, the neurons are able to grow neurites on myelin substrates. The time that it takes for neurons to grow neurites after the addition of a Rho kinase inhibitor is about the same as the time that it takes for neurons to grow neurites if the neurons had been plated on growth permissive substrate such as laminin or polylysine, which time is typically 1 to 2 days in cell culture. An assessment of resulting neurite growth can be scored by visual means. If needed, a quantitative assessment of neurite growth can be performed. This involves measuring after a time such as 1 to 2 days the neurite length a) in control cultures where neurons are plated on myelin substrates and left untreated with Rho kinase inhibitor for such time, b) in positive control cultures, wherein for example neurons are plated on polylysine but left untreated with Rho kinase inhibitor for such time, and c) in cultures analogous to a) and b) that are treated with different concentrations of a Rho kinase inhibitor for such time. […] In this assay, NG108 cells are plated on plastic in the presence or absence of the test substance (a Rho kinase inhibitor). […] The relative efficacy can be assessed by fixing the cultures 5 hours after plating, and counting the number of cells that have grown neurites.
A rapid bioassay is used to determine the effect of a test compounds on the stimulation of neurite growth in vitro. A neuronal cell line, NG108-15 (ATCC HB-12317), is maintained in culture in Dulbecco's minimal essential medium (DMEM) supplemented with 10% fetal bovine serum, Penicillin/Streptomycin and HAT supplement (Gibco/BRL). For the bioassay, the cells are collected by trypsinisation and ressuspended in DMEM supplemented with 5% FBS, Penicillin/Streptomycin, HAT supplement and 0.25 mg/ml cAMP, adjusted to 1.0×10^4 cells/ml. The cells are plated into wells of a 96 well plate at 100 μls (1000 cells)/well. Cells are incubated 4 h at 37° C. and 5% CO2 in presence of small molecules or cethrin at a concentration of 1000 cells per well of a 96-wells plate in a final volume of 100 ul.
After incubation, cells are fixed by adding […] 16% PFA and 5.4 μls 2.5% glutaraldehyde to the media in each well. The wells are stained with cresyl violet 0.05% , 100 μls/well for 15 min. Cells with neurites (length≧one cell body) are counted using an inverted light microscope. The % neurite outgrowth is determined by calculating the number of cells with neurites over the total number of counted cells.

T1 sequence (O75116 whole entry): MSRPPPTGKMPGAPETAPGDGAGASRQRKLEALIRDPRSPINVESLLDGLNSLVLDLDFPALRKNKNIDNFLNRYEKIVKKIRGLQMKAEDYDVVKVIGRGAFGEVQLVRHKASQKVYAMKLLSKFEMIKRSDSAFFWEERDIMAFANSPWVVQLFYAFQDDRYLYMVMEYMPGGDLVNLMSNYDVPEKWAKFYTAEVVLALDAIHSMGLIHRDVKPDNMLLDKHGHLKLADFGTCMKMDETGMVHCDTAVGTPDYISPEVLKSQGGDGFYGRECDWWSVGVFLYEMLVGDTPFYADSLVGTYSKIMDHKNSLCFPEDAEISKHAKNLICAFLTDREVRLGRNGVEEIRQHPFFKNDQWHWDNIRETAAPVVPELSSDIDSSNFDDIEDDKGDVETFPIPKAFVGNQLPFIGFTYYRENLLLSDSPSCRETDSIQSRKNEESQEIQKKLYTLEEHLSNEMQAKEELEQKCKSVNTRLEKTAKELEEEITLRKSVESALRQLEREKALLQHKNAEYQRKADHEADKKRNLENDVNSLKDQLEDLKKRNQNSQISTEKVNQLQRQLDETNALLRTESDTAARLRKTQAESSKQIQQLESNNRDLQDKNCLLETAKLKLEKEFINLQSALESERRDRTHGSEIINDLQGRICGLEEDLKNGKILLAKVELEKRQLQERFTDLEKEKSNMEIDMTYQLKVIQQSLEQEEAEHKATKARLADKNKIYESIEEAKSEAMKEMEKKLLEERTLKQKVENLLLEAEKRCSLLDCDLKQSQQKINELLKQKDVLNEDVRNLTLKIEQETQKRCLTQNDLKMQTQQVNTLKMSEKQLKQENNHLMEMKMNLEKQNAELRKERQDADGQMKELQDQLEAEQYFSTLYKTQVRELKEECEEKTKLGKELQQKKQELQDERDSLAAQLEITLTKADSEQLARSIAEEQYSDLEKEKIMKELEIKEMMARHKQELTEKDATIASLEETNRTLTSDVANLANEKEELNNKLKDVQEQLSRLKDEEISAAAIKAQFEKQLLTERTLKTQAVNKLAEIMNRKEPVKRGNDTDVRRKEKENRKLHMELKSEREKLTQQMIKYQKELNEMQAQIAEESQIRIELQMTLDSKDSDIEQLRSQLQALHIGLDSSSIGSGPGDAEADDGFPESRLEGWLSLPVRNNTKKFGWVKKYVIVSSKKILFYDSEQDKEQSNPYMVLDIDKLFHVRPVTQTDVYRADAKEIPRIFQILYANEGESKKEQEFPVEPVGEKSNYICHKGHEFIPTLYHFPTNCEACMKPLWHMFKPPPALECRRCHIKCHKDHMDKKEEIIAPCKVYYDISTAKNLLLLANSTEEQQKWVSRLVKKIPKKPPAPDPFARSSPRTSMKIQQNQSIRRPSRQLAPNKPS
glycogen synthatase kinase 3 beta (GSKB), sequence (P49841 whole entry): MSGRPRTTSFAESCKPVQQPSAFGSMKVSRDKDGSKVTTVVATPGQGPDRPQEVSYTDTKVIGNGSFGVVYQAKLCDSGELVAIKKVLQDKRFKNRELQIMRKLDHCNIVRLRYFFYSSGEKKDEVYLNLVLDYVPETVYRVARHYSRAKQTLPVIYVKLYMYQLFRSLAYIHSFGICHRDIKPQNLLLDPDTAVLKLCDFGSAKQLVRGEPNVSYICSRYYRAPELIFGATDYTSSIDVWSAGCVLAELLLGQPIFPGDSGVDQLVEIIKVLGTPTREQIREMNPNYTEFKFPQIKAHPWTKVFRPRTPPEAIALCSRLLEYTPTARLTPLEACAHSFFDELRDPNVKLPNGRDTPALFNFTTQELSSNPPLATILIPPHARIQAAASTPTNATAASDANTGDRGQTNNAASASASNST

## CCCCCCCCNN[C@H]1CC[C@H](C(=O)Nc2ccncc2)CC1.Cl.Cl [BA-1037, trans-4-[N′-(Octyl)hydrazino]-N-(4′″-pyridyl)cyclohexane Carboxamide Dihydrochloride]
[1]; 1 uM, 10 uM and 100 uM, versus DMSO and PBS controls, Dihydrochloride
  cell proliferation, all three doses: significantly blocked cell proliferation; also recorded: reduce cell proliferation
[1]; 100 uM
  cell proliferation, highest concentration tested: complete arrest of cell proliferation
[2]
  IC50: 6.5 µM
[3]
  cell proliferation, highest dose tested: significantly blocked cell proliferation; also recorded: completely block proliferation
[4]
  activity towards GSKB (FIG. 10): can exert activity
[5]
  neurite growth by bioassay, normalized to BA-1016 (FIG. 7): equally well as BA-1016
